# Measurements published in patent US20260207624A1, “COADMINISTRATION OF ESTROGEN WITH ESTROGEN RECEPTOR MODULATOR OR DEGRADER OR ER TARGETED PROTAC FOR THE TREATMENT OF ESTROGEN RESPONSIVE CANCERS” (Duke University, priority 2022, published 2026).
# Columns and labels:
# ER = molecular target: T1, ER (Homo sapiens, UniProt P03372); assay: ER downregulation in breast cancer cell lines by in-cell western; assay type: cell-based; settings: MCF7, BT483, T47D, ZR751, CAMA1 cells, 24 hours after treatment
# T1 construct: SERDs differ in the efficacy of ER downregulation in breast cancer cell lines; endogenous in cells; host or cells: MCF7, BT483, T47D, ZR751, CAMA1
# T1 sequence (P03372 1-595): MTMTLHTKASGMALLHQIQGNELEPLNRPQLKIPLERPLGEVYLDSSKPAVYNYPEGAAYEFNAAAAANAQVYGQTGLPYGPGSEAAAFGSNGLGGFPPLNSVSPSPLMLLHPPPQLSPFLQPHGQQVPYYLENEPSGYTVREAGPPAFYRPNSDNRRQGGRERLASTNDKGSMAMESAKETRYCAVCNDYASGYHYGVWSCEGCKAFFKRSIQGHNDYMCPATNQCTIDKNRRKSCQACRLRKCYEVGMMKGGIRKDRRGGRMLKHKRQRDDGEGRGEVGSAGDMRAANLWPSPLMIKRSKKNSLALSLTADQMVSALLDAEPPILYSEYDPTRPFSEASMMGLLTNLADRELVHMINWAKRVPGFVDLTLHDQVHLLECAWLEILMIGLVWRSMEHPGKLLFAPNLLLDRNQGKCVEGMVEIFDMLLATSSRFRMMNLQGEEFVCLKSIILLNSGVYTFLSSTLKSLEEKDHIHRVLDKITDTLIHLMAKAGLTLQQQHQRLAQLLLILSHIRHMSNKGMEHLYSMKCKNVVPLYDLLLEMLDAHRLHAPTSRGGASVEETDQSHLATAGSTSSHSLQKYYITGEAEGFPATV
# Description: FIGS. 8A-8B. SERDs differ in the efficacy of ER downregulation in breast cancer cell lines. Breast cancer cells, including MCF7, BT483, T47D, ZR751, and CAMA1, were plated in phenol red free media supplemented with charcoal stripped FBS prior to treatment in triplicate wells with the indicated SERMs or SERDs (10-11-10-5 M final concentration). 24 hours after treatment, cells were fixed to the plates, and ER levels were analyzed by in-cell western using a fluorophore conjugated secondary antibody. Average detected ER levels were normalized to well DNA content using DRAQ5 staining. Relative ER turnover was calculated as a ratio of normalized ER levels detected in treated wells to untreated wells. Data were representative of at least 3 independent experiments. Data for each cell line were graphed in 2 panels to categorize SERDs by chemical properties, separating basic SERDs (FIG. 8A) and those having carboxylic acid group(s) (FIG. 8B). Serm-like SERDs bazedoxifene and elacestrant were also presented in (FIG. 8A) for reference. Fulvestrant was included on both graphs for all cell lines to facilitate comparison.
# Breast cancer cells = assay: Anti-proliferative activity in breast cancer cell lines (DNA content, Hoechst staining); assay type: cell-based; settings: with estradiol 0.1 nM, 7 days after treatment
# Description: FIGS. 9A-9C. Anti-proliferative activities of SERDs in select breast cancer cell lines differ primarily in potency. Breast cancer cells were plated in phenol red free media supplemented with charcoal stripped FBS prior to treatment in triplicate wells with the indicated SERMs and SERM-like SERDs (FIG. 9A), acidic SERDs (FIG. 9B), basic SERDs (FIG. 9C) at 10^-12 to 10^-5 M final concentration, followed by addition of estradiol (E2, 0.1 nM) or insulin (2 nM, MCF7 cell line only, bottom panels). 7 days after treatment, plates were harvested and DNA quantitated using fluorescence following Hoechst staining. Average detected fluorescence was normalized to wells receiving no ligand treatment, and relative change in DNA fluorescence was calculated compared to wells treated only with E2. Data are representative of at least 3 independent experiments.
compound,measurement,setting,value
CCNCCc1ccc(CN(CC)c2cc(OC)ccc2[C@@H]2CCc3cc(O)ccc3C2)cc1 [elacestrant],ER downregulation / ER degradation,ER,generally the least efficient SERD
same,inhibition of cellular proliferation,Breast cancer cells,efficacy similar to that observed for other SERDs
